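Where inhibition never reached the appropriate level, the endpoint shown equals the highest concentration tested. Otherwise, values were interpolated linearly from a five-concentration, 48-hour dose response in 96-well plates. Abbreviation: GI50, concentration required for 50% inhibition of growth.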 Active and inactive are the calls of the source. Rule as the data show it: active = GI50 up to about 1.1 µM and inactive = higher.

Experiment in all cases: NCI anticancer screen, dose series, 48 h
Assay [1] has as its system DMS-273.
Assay [2] relates to M19-MEL.
The subject of assay [3] is KM-20L2.
Assay [4] has as its system DMS-114.
Assay [5] relates to XF498.
In assay [6] the test system is DLD-1.
In assay [7] the test system is SNB-78.
The subject of assay [8] is HOP-18.

Consider `COC(=O)CC1NC(=O)[C@@H]1C(C)O` (stereo partly drawn), for which the GI50 was > 100 µM (inactive) in assay [1]; > 100 µM (inactive) in assay [2]; > 100 µM (inactive) in assay [3]; > 100 µM (inactive) in assay [4]; > 100 µM (inactive) in assay [5]; > 10 µM (inactive) in assay [6].

In the case of `Brc1c2nc3ccccc3nc2n2ccc3ccccc3c12`, the GI50 in assay [7], in assay [1], in assay [2], in assay [3], in assay [4] and in assay [5] was > 100 µM (inactive) throughout. Further, the GI50 in assay [6] is > 100 µM (inactive).

In the case of `COC1C=COC2(C)Oc3c(C)c(O)c4c(O)c(c(/C=N/N5CCN(N)CC5)c(O)c4c3C2=O)NC(=O)C(C)=CC=CC(C)C(O)C(C)C(O)C(C)C(OC(C)=O)C1C` (stereo not drawn), the GI50 in assay [7] is 88.1 µM (inactive); in assay [1] it was > 100 µM (inactive); in assay [2], 42 µM (inactive); in assay [3] it was > 100 µM (inactive); in assay [4], 64.4 µM (inactive); in assay [6], 82.6 µM (inactive).

For `CCCOc1nc(N)c2cnn(C3CCCCO3)c2n1` (stereo not drawn), the GI50 in assay [7] is > 100 µM (inactive); in assay [8], 68.9 µM (inactive); in assay [1], > 100 µM (inactive); in assay [2], > 100 µM (inactive); in assay [3], > 100 µM (inactive); in assay [4], > 100 µM (inactive). For the same compound, the GI50 in assay [6] was > 100 µM (inactive).

For the compound `O=C1C(=O)N(c2cc(Cl)ccc2Cl)C(=O)C(=O)C1c1nc2ccccc2s1`, the GI50 in assay [7], in assay [1], in assay [2], in assay [3], in assay [4] and in assay [5] was > 100 µM (inactive) in each case. Besides, in assay [6], the GI50 was > 100 µM (inactive).

Consider `CCCCN/C(=N\C#N)N(Cc1ccccc1)Cc1ccccc1`, for which the GI50 in assay [7] is 18.2 µM (inactive); in assay [8] it was 39.8 µM (inactive); in assay [1], 16.1 µM (inactive); in assay [2], 18.1 µM (inactive); in assay [3], 20.8 µM (inactive); in assay [6], 19.1 µM (inactive).

Consider `CN(C)C(=S)/N=c1\ss/c(=N\C(=S)N(C)C)n1-c1ccc2c(c1)OCO2`, for which the GI50 is > 100 µM (inactive) in assay [1], > 100 µM (inactive) in assay [3] and 5.11 µM (inactive) in assay [4].

With `COc1cc2c[n+](C)c3c4cc(OC)c(OC(C)C)cc4ccc3c2cc1OC`, the GI50 in assay [7] is 50 µM (inactive); in assay [8], 49.7 µM (inactive); in assay [1] it was 27.2 µM (inactive); in assay [2], 18.4 µM (inactive); in assay [3], 62.7 µM (inactive); in assay [4], 5.85 µM (inactive). In addition, in assay [6], the GI50 is > 100 µM (inactive).

As for `CN(C)CCCOc1ccc(/C=C2/CCC/C(=C/c3ccc(OCCCN(C)C)cc3)C2=O)cc1`, the GI50 in assay [7] is 3.25 µM (inactive); in assay [8], 3.61 µM (inactive); in assay [1], 1.45 µM (inactive); in assay [3], 0.232 µM (active); in assay [4], 1.56 µM (inactive); in assay [6] it was 1.5 µM (inactive).

For `COC1[C@@H](OC(C)=O)[C@@H](NC(=O)C(Cl)(Cl)Cl)C(I)[C@@H](N2C(=O)c3ccccc3C2=O)[C@H]1OC` (stereo partly drawn), the GI50 in assay [7], in assay [8], in assay [1], in assay [3], in assay [4] and in assay [6] was > 100 µM (inactive) each time.

Consider `COc1ccc(/C=C2\CCC(CCN(C)C)(C3=CCCC3)C2=O)cc1` (stereo not drawn), for which the GI50 in assay [7] is 21.8 µM (inactive); in assay [8], 14.1 µM (inactive); in assay [1], 17.1 µM (inactive); in assay [2], 15.1 µM (inactive); in assay [3], 14.1 µM (inactive); in assay [4], 15.6 µM (inactive). For the same compound, the GI50 in assay [6] is 26.4 µM (inactive).

Source of the values: ChEMBL document CHEMBL1201862, “PubChem BioAssay data set” (2004).
